Experiment [1] concerns TMPRSS2. Also on record: method as in earlier work. The note with it: top 50 compounds by AUC, Figure 2 source data; cited from earlier work.
Experiment [2] addresses T1, Recombinant Human TMPRSS2 (Homo sapiens, UniProt O15393).
T1 construct: human TMPRSS2 residues 106492, N-terminal 6x His-tag; 6x His-tag (N); purchased Cusabio CSB-YP023924HU; host or cells: yeast
Kind of experiment: TMPRSS2 biochemical assay (Boc-Gln-Ala-Arg-AMC fluorogenic substrate). The procedure:
Inhibitors of TMPRSS2 were tested using a high throughput activity assay. […] TMPRSS2 (5 µl, 0.018 mg/ml) in assay buffer (50 mM Tris pH 8, 150 mM NaCl, 0.01% Tween20) was dispensed to that, using a BioRAPTR (Beckman Coulter), for a total assay volume of 5 µl.
After incubation at room temperature for 1 h, fluorescence was measured. […] Raw plate reads for each titration point were normalized relative to a positive control containing no enzyme (0% activity, full inhibition) and a negative control containing DMSO-only wells (100% activity, basal activity). Data normalization was performed using GraphPad Prism (GraphPad Software, San Diego, CA).
We employed the curve fitting algorithm available in the SciPy package (version 1.10.1)[61] to derive the Hill slope and the IC50 value, along with their corresponding error estimates.

Where [3] appears, read: second round of screening on the NCATS in-house library (dynamic h-score selection), read-out: IC50.
[4] abbreviates: first round of screening on the NCATS in-house library (docking score selection), read-out: IC50.

The structures appear in SMILES notation. Where two headings read alike, the source gives them in different places.

A word on the IC50: it is the concentration that inhibits the measured activity by half.

T1 sequence (O15393 106-492 limits assumed): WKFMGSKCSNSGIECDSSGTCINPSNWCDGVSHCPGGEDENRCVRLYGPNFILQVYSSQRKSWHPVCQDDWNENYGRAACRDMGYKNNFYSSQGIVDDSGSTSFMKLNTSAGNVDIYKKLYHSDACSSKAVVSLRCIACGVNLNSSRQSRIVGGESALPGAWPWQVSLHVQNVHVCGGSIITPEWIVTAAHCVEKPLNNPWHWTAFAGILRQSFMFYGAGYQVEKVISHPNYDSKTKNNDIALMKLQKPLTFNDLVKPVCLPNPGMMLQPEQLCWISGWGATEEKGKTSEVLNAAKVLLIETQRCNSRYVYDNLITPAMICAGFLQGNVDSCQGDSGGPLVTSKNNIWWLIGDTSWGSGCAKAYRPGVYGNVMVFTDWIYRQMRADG

`O=c1c(O)c(-c2ccc(O)c(O)c2)oc2cc(O)cc(O)c12` [NCGC00015870-27]: in experiment [1], the “max response (%)” value was -35.5344%.

Regarding `CCOC(=O)c1ccc(OC(=O)CCCCCN=C(N)N)cc1.CS(=O)(=O)O` [NCGC00025297-04], the “max response (%)” value in experiment [1] is on record as -83.626%.

`Nc1nn(-c2ccccc2)nc1C(=O)OCc1ccccc1` [NCGC00102837-01]: the IC50 in experiment [2] (setting [3]) worked out at 17.8 µM.

On to `CS(=O)(=O)O.C[C@H](N)C(=O)N[C@@H](C)C(=O)NC1[C@H]2CN(c3nc4c(cc3F)c(=O)c(C(=O)O)cn4-c3ccc(F)cc3F)C[C@@H]12` (some centres unmarked) [NCGC00261969-01], for which, in experiment [1], the “max response (%)” value is listed as -25.1766%.

In the case of `CCOC(=O)c1cccc(Nc2ccc3cc(S(=O)(=O)N4CCCCC4)ccc3n2)c1` [NCGC00127764-01], the concentration for half-maximal inhibition (IC50) in experiment [2] (setting [4]) came out at 14.1 µM.

`C=C1C(=O)O[C@@H]2[C@H]3O[C@]3(C)CC/C=C(/C)CC[C@@H]12` [NCGC00024683-23]: the “max response (%)” value in experiment [1] is -10.5725%.

Turning to `CCOC(=O)CCN(C(=O)c1ccc2c(c1)nc(CNc1ccc(C(=N)N)cc1)n2C)c1ccccn1` [dabigatran ethyl ester], the IC50 in experiment [2] (hits from NCATS in-house library screening, read-out: IC50, TMPRSS2 biochemical assay) was determined as 2.24 µM.

Take `Nc1nn(-c2ccccc2)nc1C(=O)OCc1ccccc1Br` [NCGC00102940-01]: the half-inhibitory concentration (IC50) in experiment [2] (setting [3]) was determined as 17.8 µM.

Consider `COC(=O)c1ccc(Nc2nc(-c3ccc(C)cc3)nc3ccccc23)cc1` [NCGC00099825-01], for which, in experiment [2] (setting [4]), the half-maximal inhibitory concentration (IC50) stood at 17.8 µM.

In the case of `CCCNCC(O)COc1ccccc1C(=O)CCc1ccccc1` (centres unmarked) [NCGC00015819-15], in experiment [1], the “max response (%)” value is reported as -5.725%.

With `COC(=O)CNC(=O)c1nc(-c2cccc(C(F)(F)F)c2)c2ccccn12` [NCGC00476320-01], the IC50 in experiment [2] (setting [4]) was 15.8 µM.

For `COc1cc(C)c(Cc2cnc(N)nc2N)cc1OC` [NCGC00167523-03], the “max response (%)” value in experiment [1] is given as -8.206%.

Turning to `Cc1cc(C(=O)Nc2cc(Oc3ccc4nc(NC(=O)C5CC5)cn4n3)ccc2C)n(C)n1` [NCGC00485933-01], the IC50 in experiment [2] (setting [4]) turned out to be 31.6 µM.

Turning to `Cn1nnc(-c2ccc(-c3ccc(N4C[C@H](COP(=O)(O)O)OC4=O)cc3F)cn2)n1` [NCGC00482851-02], the concentration for half-maximal inhibition (IC50) in experiment [2] (setting [4]) is 35.5 µM.

In the case of `COC(=O)c1ccccc1NC(=O)CCCS(=O)(=O)c1nc(-c2ccccc2OC)cc(C(F)(F)F)n1` [NCGC00103995-01], the IC50 in experiment [2] (setting [4]) is 14.1 µM.

`O=C(OCC1CCCO1)c1ccc2c(c1)N(Cc1ccc(F)cc1)C(=O)c1ccccc1S2(=O)=O` (centres unmarked) [NCGC00127812-01]: in experiment [2] (setting [3]), the IC50 turned out to be 15.8 µM.

Consider `N=C(N)c1ccc2cc(OC(=O)c3ccc(N=C(N)N)cc3)ccc2c1` [NCGC00160398-05], for which, in experiment [1], the “max response (%)” value is given as -96.6794%.

With `Cc1cc(C)cc(OCC2CNC(=O)O2)c1` (centres unmarked) [NCGC00095116-05], the “max response (%)” value in experiment [1] is -5.458%.

`CCCCC(=O)Oc1ccc2oc(-c3ccc(OC)cc3)cc(=O)c2c1` [NCGC00100604-01]: the half-inhibitory concentration (IC50) in experiment [2] (setting [4]) amounted to 12.6 µM.

In the case of `COc1ccc(CN2CCNCC2)c(OC)c1OC` [NCGC00016697-04], the “max response (%)” value in experiment [1] is listed as -13.9313%.

Regarding `CC(=O)Nc1cccc(-c2nc(-c3c(C)noc3C)cc3c2cc(-c2ccccc2)n3C)c1` [NCGC00417192-01], the IC50 in experiment [2] (setting [4]) stood at 8.91 µM.

On to `N=C(N)c1ccc(OCCCCCOc2ccc(C(=N)N)cc2)cc1` [NCGC00179034-07], for which, in experiment [1], the “max response (%)” value is -64.313%.

Consider `O=C(c1ccc(F)cc1)C1CCN(CCn2c(=O)[nH]c3ccccc3c2=O)CC1` [NCGC00021146-09], for which the “max response (%)” value in experiment [1] is -16.7557%.

Regarding `C=C1CC[C@H](O)C/C1=C\C=C1/CCC[C@]2(C)[C@@H]([C@H](C)/C=C/[C@H](C)C(C)C)CC[C@@H]12` [NCGC00166307-05], the “max response (%)” value in experiment [1] is -20.0382%.

For the compound `O=C(O)CCNC(=O)c1ccc(N=Nc2ccc(O)c(C(=O)O)c2)cc1` [NCGC00164634-02], in experiment [1], the “max response (%)” value was -22.1756%.

`O=C1N=C([O-])CN1/N=C/c1ccc(-c2ccc([N+](=O)[O-])cc2)o1.[Na+]` [NCGC00024622-05]: the “max response (%)” value in experiment [1] was -21.3359%.

As to `Clc1cccc(C(c2ccc3nc[nH]c3c2)n2ccnc2)c1` (centres unmarked) [NCGC00181034-03], the “max response (%)” value in experiment [1] was -10.9542%.

Take `Cc1cc(C)c(CNC(=O)c2nc(-c3cccc(C(F)(F)F)c3)cc3[nH]ccc23)c(=O)[nH]1` [NCGC00411596-01]: the IC50 in experiment [2] (setting [4]) is 8.91 µM.

For `C[C@]12CCC(=O)C=C1CC[C@@H]1[C@@H]2[C@@H](O)C[C@@]2(C)[C@H]1CC[C@]2(O)C(=O)CO` [NCGC00022848-17], the “max response (%)” value in experiment [1] was -0.7252%.

For the compound `COC(=O)Cc1c(C)c2ccc3c(c2oc1=O)CN(Cc1ccc(C)cc1)CO3` [NCGC00116348-01], in experiment [2] (setting [4]), the concentration for half-maximal inhibition (IC50) was 15.8 µM.

For the compound `CC(C)c1ccc2oc(-c3ccc(NC(=O)c4cc5ccccc5o4)cc3)nc2c1` [NCGC00099237-01], the IC50 in experiment [2] (setting [4]) turned out to be 22.4 µM.

As to `CC1(C)O[C@@H]2C[C@H]3[C@@H]4CCC5=CC(=O)C=C[C@]5(C)[C@@]4(F)[C@@H](O)C[C@]3(C)[C@]2(C(=O)CO)O1` [NCGC00023193-06], the “max response (%)” value in experiment [1] is on record as -22.5573%.

On to `CN(C(=O)C(Cl)Cl)c1ccc(OC(=O)c2ccco2)cc1` [NCGC00016637-10], for which, in experiment [1], the “max response (%)” value is listed as -56.9847%.

For the compound `O=C(NCc1ccc(-c2cnc3c(Oc4ccccc4)nccn23)cc1)c1ccn[nH]1` [NCGC00413991-01], the half-maximal inhibitory concentration (IC50) in experiment [2] (setting [4]) turned out to be 35.5 µM.

As for `CC(N)C12CC3CC(CC(C3)C1)C2.Cl` (centres unmarked) [NCGC00159491-04], the “max response (%)” value in experiment [1] is -13.9313%.

Consider `CC(=O)Nc1cccc(-c2cc3c(ccn3C)c(C(=O)NCc3c(C)cc(C)[nH]c3=O)n2)c1` [NCGC00411690-01], for which the 50% inhibitory concentration (IC50) in experiment [2] (setting [4]) came to 17.8 µM.

On to `CC(=O)Nc1ccc(CN2C(=O)OC3(CCN(C(=O)c4cccc(C#N)c4)CC3)C2(C)c2ccccc2)cc1` (centres unmarked) [NCGC00415676-01], for which the IC50 in experiment [2] (setting [3]) turned out to be 31.6 µM.

As for `Fc1cc(F)cc(Cc2nc3nccc(-c4cc5ccccc5o4)n3n2)c1` [NCGC00424555-01], the IC50 in experiment [2] (setting [4]) was determined as 12.6 µM.

As for `Nc1n[nH]c(CNc2cc(-c3ccc(F)cc3)nc3ccnn23)n1` [NCGC00434595-01], the 50% inhibitory concentration (IC50) in experiment [2] (setting [4]) is 19.9 µM.

Consider `Cc1ccc(C(=O)Oc2ccc(C(O)CNC(C)(C)C)cc2OC(=O)c2ccc(C)cc2)cc1` (centres unmarked) [NCGC00253593-01], for which, in experiment [2] (setting [3]), the half-maximal inhibitory concentration (IC50) was found to be 14.1 µM.

As to `COc1ccc(-c2cc(C(=O)Oc3ccc(C)c(C)c3)c3ccccc3n2)cc1` [NCGC00099485-01], the half-inhibitory concentration (IC50) in experiment [2] (setting [4]) is 15.8 µM.

Take `CCOc1ccc(-n2nc(CO)c(C(=O)NCC(c3ccccc3)c3ccccc3)n2)cc1` [NCGC00117127-01]: the IC50 in experiment [2] (setting [4]) came to 22.4 µM.

`Cc1cc(-c2cc3c(nc2-c2ccccc2)nc(C(=O)NCCN(C)C)n3C)ccn1` [NCGC00417822-01]: in experiment [2] (setting [3]), the IC50 came out at 19.9 µM.

In the case of `COC(=O)c1ccc(OC)c(Cn2c(=O)n(-c3cccc(Cl)c3)c(=O)c3c2c2cc(C)ccc2n3C)c1` [NCGC00104930-01], the IC50 in experiment [2] (setting [4]) stood at 31.6 µM.

With `Cn1ccc2c(C(=O)NCCc3cnc[nH]3)nc(-c3cnn(Cc4ccccc4)c3)cc21` [NCGC00411713-01], the IC50 in experiment [2] (setting [4]) was 35.5 µM.

Regarding `O=C(OCC(O)CO)c1ccccc1Nc1ccnc2c(C(F)(F)F)cccc12` (centres unmarked) [NCGC00249912-01], in experiment [2] (setting [4]), the IC50 amounted to 31.6 µM.

As for `OCCn1cc(-c2cnc3nnn(Cc4ccc5ncccc5c4)c3n2)cn1` [NCGC00263161-11], in experiment [2] (setting [4]), the IC50 was 19.9 µM.

Regarding `Cc1cccc(-n2ncc3c(Nc4ccc(Oc5ccc(Cl)cc5)cc4)ncnc32)c1` [NCGC00138820-01], the IC50 in experiment [2] (setting [4]) was 12.6 µM.

On to `CCOC(=O)c1c(-c2ccc(OC)cc2)oc2ccc(OCc3ccc(F)cc3F)cc12` [NCGC00099773-01], for which, in experiment [2] (setting [4]), the IC50 worked out at 31.6 µM.

`COc1cccc(COC(=O)c2ccc(-c3nnn(Cc4ccccc4)n3)cc2)c1` [NCGC00102929-01]: in experiment [2] (setting [3]), the IC50 turned out to be 17.8 µM.

The values above are taken from publication PMC12307812 (Nature Communications, 2025).
